The subject of series [1] is melatonin receptor. As to the kind of experiment: Cellular response of osteoblasts to melatonin receptor agonists, cellular dielectric spectroscopy (CDS). The series is classed as cell-based, human. Particulars: for order of agonist potency: response at maximum concentration (10 μM), osteoblasts of control and AIS groups. As to the method:
(§1) Data were normalised to maximal response (% maximal response) in cells from control subjects. […] The impedance represented in y-axis as dZiec, indicates the resistance (ohms) of the cells toward the electric current applied by the Cellkey™ apparatus and represents the integrated cellular response. […] Cellular responses shown on the y-axis in (FIG. 3A) to (FIG. 3E) were measured by CDS.
Osteoblasts were isolated from bone specimens obtained intraoperatively from vertebras (varying from T3 to L4 according to the surgical procedure performed) and from other anatomical sites (tibia or femur) in AIS patients and trauma control cases, respectively as previously described (Moreau et al., 2004).
(§2) The functionality of Gi, Gs and Gq proteins was evaluated by CDS assay in osteoblasts, and the functionality of Gi was also evaluated by CDS assay in myoblasts and PBMCs from the same individuals, using CellKey™ apparatus, as previously described (Akoume et al., 2010 and WO 2010/040234, 2010 to Moreau et al.).
The response produced with their maximum concentration (10 μM) in osteoblasts from control subjects and AIS patients of each functional group was compared.

Series [2] concerns Gi proteins. As to the kind of experiment: Inhibition by GPAnt-2 or pertussis toxin of osteoblast response to Gi-coupled receptor agonists (CDS). It counts as cell-based, human. Particulars: for effect on cellular response to melatonin: 16 hours. As to the method: as §1, §2
The subject of series [3] is response to Gi stimulation. As to the kind of experiment: Effect of serine/threonine kinase inhibitors on response to Gi stimulation in osteoblasts (CDS). The series is classed as cell-based, human. Particulars: inhibitor 5 μM, 1 hour before agonist. How it is done: FIG. 13A-FIG. 13B show the effect of various serine/threonine kinase inhibitors on response to Gi stimulation in osteoblasts from control and AIS functional groups. Cells were treated with Protein kinase A (PKA) inhibitor H89 (5 μM), Protein kinase C (PKC) inhibitor Gö6983 (5 μM), Ca^2+/calmodulin-dependent protein kinase (CaMK) (1,2,4) inhibitor STO-609 acetate (5 μM), Ca^2+/calmodulin-dependent protein kinase II (CaMK-2) inhibitor KN93 (5 μM), Casein kinase 1 (CK1) inhibitor D4476 (5 μM) or vehicle for 1 hour prior to stimulation with (FIG. 13A) LPA (10^−6 M) or (FIG. 13B) Somatostatin (10^−6 M). Response to Gi stimulation was measured by CDS. Data were normalised to response in osteoblasts treated with vehicle (% response in presence of vehicle shown on the y-axis and measured by CDS), and are expressed as mean±SE, of n=12 patients in each functional group. * P<0.05, **P<0.01, ***P<0.001, vs control group.
as §2
In order to identify putative serine/threonine kinases phosphorylating Gi isoforms in AIS, control and AIS osteoblasts were treated with a panel of serine/threonine kinase inhibitors prior to their stimulation with two distinct agonists (LPA and somatostatin). Of note, Gi stimulation induced via LPA or somatostatin receptor activation by their agonists in control osteoblasts was not affected by any kinase inhibitor (FIG. 13A-FIG. 13B). […] Cellular response in FG3 osteoblasts was not improved by inhibition of neither of PKC nor CaMK.

The subject of series [4] is beta-adrenergic receptor. Nature of the series: Functional status of Gs protein in osteoblasts, isoproterenol challenge (CDS). The series is classed as cell-based, human. As to the method: as §2
The test system of series [5] is melatonin receptor. Particulars: normal osteoblasts; CDS (Akoume et al., 2010); cited from earlier work.
In series [6] the test system is response to Gi stimulation. Nature of the series: Effect of Gi and Gs siRNA on response to Gi stimulation in osteoblasts (CDS). The series is classed as cell-based, human. As to the method: FIG. 12A-FIG. 12H show the differential effects of Gi and Gs siRNA on response to Gi stimulation in AIS functional groups. Osteoblasts from (FIG. 12A) control subjects, (FIG. 12B) FG3, (FIG. 12C) FG2; and (FIG. 12D) FG1 were transfected with Gi1, Gi2, Gi3 or Gs siRNA alone or in combination, or with scrambled siRNA, as indicated in Example 1—Materials and Methods. Efficiency of siRNA was verified with qPCR in each functional group (FIG. 12E to FIG. 12H) 48 hours after transfection, and response to Gi stimulation was measured by CDS and evaluated by challenging cells with Apelin-17, LPA or Somatostatin. Results from a single representative subject for each group are presented. Data were normalised to response in cells transfected with scrambled siRNA (% response shown on the y-axis and measured by CDS), and are expressed as mean±SE, of n=6 patients in each functional group. * P<0.05, **P<0.01, ***P<0.001, vs. control group.
as §2
All Gi1, Gi2, Gi3, Gs and scrambled siRNA were obtained from Ambion (Ambion USA). Osteoblasts from control subjects and AIS patients were transiently transfected in serum-free medium, using Lipofectamine RNAiMAX™ reagent (Invitrogen) according to the manufacturer's instructions and functional experiments were performed 48 h post transfection. The gene knockdown was evaluated by quantitative real-time PCR (qPCR).
Silencing of each gene reduced by 75-85% the expression of the corresponding mRNA in osteoblasts from control and the three AIS groups (FIGS. 12E-H). […] The response to each tested agonist was reduced by at least 75% by silencing Gi3 alone in FG2 osteoblasts (FIG. 12C), and by 90% by silencing Gi1 alone in FG3 osteoblasts ([…]) confirming that the residual response to Gi stimulation is mediated by Gi3 and Gi1 isoforms in FG2 and FG3 groups, respectively. In FG1 osteoblasts, response to each agonist was reduced by 50% following the depletion of all Gi isoforms by siRNA, and was not affected by the knockdown of individual Gi isoforms ([…]).

In the case of `COc1ccc2[nH]c(-c3ccccc3)c(CCNC(C)=O)c2c1` [phenylmelatonin], in series [1], the “order of agonist potency” value is “phenylmelatonin>iodomelatonin>melatonin”.
pertussis toxin [PTX]: the “effect on cellular response to melatonin” value in series [2] (FG1 osteoblasts, maximal concentration) was “enhanced the response to melatonin”; in series [2] (FG2 and FG3 osteoblasts, increasing concentration), “reduced the cellular response to melatonin”. In addition, in series [2] (high concentrations, all AIS and control groups), the “effect on response to mastoparan” value is on record as “almost abolished”. Besides, in series [2] (response to any of the five synthetic agonists, osteoblasts (GPAnt-2 4 h, PTX 16 h)), the inhibition curve patterns entry is “curve patterns similar to those obtained with melatonin”.
On to `COc1ccc2c(c1)c(C1=C(c3c[nH]c4ccccc34)C(=O)NC1=O)cn2CCCN(C)C` [Gö8963, Gö6983], for which the “effect on response to Gi stimulation via LPA or somatostatin” value in series [3] (FG1 osteoblasts) was “significantly increased”; in series [3] (FG2 osteoblasts), “devoid of significant effect”; in series [3] (FG3 osteoblasts) it was “not improved”.
As for `CC(C)NCC(O)c1ccc(O)c(O)c1` (stereo not shown) [isoproterenol], the “cellular response, AIS osteoblasts vs control osteoblasts” value in series [4] is listed as “significantly enhanced”.
On to `COc1ccc2[nH]cc(CCNC(C)=O)c2c1` [melatonin], for which the “concentration at which the response reaches a plateau” value in series [1] (osteoblasts, all control and AIS groups) came out at 1 µM. In addition, the “cellular response to melatonin” value in series [1] (osteoblasts, all control and AIS groups, CDS) is “concentration-dependent increase of response”. The “order of magnitude of the maximum response from highest to lowest” value in series [1] (osteoblasts, control vs AIS functional groups) is “control group, FG3, FG2 and FG1”. Moreover, the “order of agonist potency” value in series [1] is reported as “phenylmelatonin>iodomelatonin>melatonin”. Further, the “G protein dependence of cellular response to melatonin receptor stimulation” value in series [5] was “mainly Gi-dependent in normal osteoblasts”.
For “Gs siRNA: siRNA from Ambion, ACAACAUGGUCAUCCGGGAGGACAA (SEQ ID NO: 100)”, the “reduction of response to each tested agonist” value is listed as 50% in series [6] (FG1 osteoblasts), “devoid of effect” in series [6] (FG2 osteoblasts), “devoid of effect” in series [6] (FG3 osteoblasts) and “devoid of effect” in series [6] (control group osteoblasts).
For the molecule `COc1ccc(S(=O)(=O)N(CCO)c2ccccc2CN(C)C/C=C/c2ccc(Cl)cc2)cc1` [KN93], the “effect on response to Gi stimulation via LPA or somatostatin” value is “unaffected” in series [3] (FG1 osteoblasts), “increased the signalling response” in series [3] (FG2 osteoblasts) and “not improved” in series [3] (FG3 osteoblasts).
As for `COc1ccc2[nH]c(I)c(CCNC(C)=O)c2c1` [iodomelatonin], the “order of agonist potency” value in series [1] is “phenylmelatonin>iodomelatonin>melatonin”.
`O=S(=O)(NCCNC/C=C/c1ccc(Br)cc1)c1cccc2cnccc12` [H89]: the “effect on response to Gi stimulation via LPA or somatostatin” value in series [3] (FG1 osteoblasts), in series [3] (FG2 osteoblasts) and in series [3] (FG3 osteoblasts) was “increased the signalling response” throughout.
For `NC(=O)c1ccc(-c2nc(-c3ccc4c(c3)OCCO4)c(-c3ccccn3)[nH]2)cc1` [D4476], the “effect on response to Gi stimulation via LPA or somatostatin” value in series [3] (FG1 osteoblasts) and in series [3] (FG3 osteoblasts) was “increased response” throughout.
On to STO-609 acetate, for which the “effect on response to Gi stimulation via LPA or somatostatin” value in series [3] (FG1 osteoblasts) was “significantly increased”; in series [3] (FG2 osteoblasts), “increased the signalling response”; in series [3] (FG3 osteoblasts), “not improved”.
For “Gi2 siRNA: siRNA from Ambion, GAGGACCUGAAUAAGCGCAAAGACA (SEQ ID NO: 98)”, the “reduction of response to each tested agonist” value in series [6] (control group osteoblasts) is on record as “not significantly affected”.

The values are drawn from patent US20180284132A1, “KITS FOR STRATIFYING SCOLIOTIC SUBJECTS” (CHU SAINTE-JUSTINE, priority 2013, published 2018).
